How the values were obtained:
[1] = biological target: T1, human 5-HT2CR (unedited INI isoform) (Homo sapiens, UniProt P28335); test: 5-HT-induced Cai2+ release assay in live h5-HT2CR-CHO cells; format: cell-based; conditions: for allosteric modulator (PAM/NAM) activity on 5-HT-induced Cai2+ release, in words: 1 nM test compound
T1 sequence (P28335 33-458): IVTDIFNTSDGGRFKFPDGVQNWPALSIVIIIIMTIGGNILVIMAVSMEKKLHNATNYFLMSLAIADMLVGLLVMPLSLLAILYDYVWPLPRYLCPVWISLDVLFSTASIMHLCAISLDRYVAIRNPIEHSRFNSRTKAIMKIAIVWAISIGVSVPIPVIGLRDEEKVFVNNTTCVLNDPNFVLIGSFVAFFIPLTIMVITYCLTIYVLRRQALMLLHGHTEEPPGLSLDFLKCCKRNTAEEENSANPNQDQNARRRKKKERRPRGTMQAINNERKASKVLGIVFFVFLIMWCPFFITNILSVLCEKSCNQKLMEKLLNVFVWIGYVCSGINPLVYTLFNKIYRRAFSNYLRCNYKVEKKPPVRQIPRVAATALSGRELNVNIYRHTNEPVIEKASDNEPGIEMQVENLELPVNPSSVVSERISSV

human 5-HT2AR [2] = biological target: T2, human 5-HT2AR (Homo sapiens, UniProt P28223); test: 5-HT-evoked Cai2+ release assay in live h5-HT2AR-CHO cells; format: cell-based; conditions: 1 pM, 1 nM, 1 μM
T2 sequence (P28223 whole entry): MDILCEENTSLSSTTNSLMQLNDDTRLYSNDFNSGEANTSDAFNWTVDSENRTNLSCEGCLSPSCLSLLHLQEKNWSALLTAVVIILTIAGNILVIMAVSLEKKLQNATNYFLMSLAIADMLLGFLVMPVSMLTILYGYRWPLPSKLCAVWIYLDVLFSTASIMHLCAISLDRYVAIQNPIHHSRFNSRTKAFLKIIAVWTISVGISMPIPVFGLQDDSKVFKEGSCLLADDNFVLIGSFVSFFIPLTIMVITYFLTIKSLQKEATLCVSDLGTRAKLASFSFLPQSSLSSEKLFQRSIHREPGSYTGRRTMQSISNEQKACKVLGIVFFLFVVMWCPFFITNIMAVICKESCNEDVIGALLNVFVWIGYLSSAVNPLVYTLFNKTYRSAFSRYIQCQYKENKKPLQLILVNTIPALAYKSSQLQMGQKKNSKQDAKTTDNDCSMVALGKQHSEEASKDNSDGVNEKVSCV

male Sprague–Dawley rats [3] = test: Spontaneous locomotor activity; format: in vivo; conditions: rat
male Sprague–Dawley rats [4] = test: WAY163909 vs saline drug discrimination assay; format: in vivo
male Sprague–Dawley rats [5] = test: Cocaine self-administration cue reactivity test; format: in vivo; conditions: 1 mg/kg ip, rat
5-HT1BR = 5-HT1BR (Homo sapiens, UniProt P28222); test: NIMH PDSP radioligand displacement; conditions: read-out: % inhib (10 μm)
5-HT1BR, sequence (P28222 whole entry): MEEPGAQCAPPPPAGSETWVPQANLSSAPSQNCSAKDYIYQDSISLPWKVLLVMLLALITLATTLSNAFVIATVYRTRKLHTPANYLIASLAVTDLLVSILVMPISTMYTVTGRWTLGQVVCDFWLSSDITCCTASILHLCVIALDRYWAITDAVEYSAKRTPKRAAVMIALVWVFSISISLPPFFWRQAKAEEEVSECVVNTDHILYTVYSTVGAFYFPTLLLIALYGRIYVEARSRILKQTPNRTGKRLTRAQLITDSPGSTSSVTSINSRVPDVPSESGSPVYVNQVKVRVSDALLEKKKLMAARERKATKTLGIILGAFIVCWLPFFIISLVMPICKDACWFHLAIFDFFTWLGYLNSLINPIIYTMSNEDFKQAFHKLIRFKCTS

dopamine receptor D4 = biological target: T3, dopamine receptor D4 (Homo sapiens, UniProt P21917); test: NIMH PDSP radioligand displacement; conditions: read-out: % inhib (10 μm)
T3 sequence (P21917 1-419): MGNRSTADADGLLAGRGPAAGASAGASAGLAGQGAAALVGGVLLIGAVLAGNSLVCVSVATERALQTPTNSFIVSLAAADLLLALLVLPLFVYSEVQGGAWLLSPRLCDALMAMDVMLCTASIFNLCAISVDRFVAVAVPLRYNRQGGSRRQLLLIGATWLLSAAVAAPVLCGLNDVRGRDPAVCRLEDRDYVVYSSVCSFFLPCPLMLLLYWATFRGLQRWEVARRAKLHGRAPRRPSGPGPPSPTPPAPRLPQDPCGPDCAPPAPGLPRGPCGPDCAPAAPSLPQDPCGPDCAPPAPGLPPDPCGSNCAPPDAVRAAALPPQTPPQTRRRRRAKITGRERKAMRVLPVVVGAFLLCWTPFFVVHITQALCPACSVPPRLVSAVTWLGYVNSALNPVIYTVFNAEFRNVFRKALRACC

[6] = biological target: norepinephrine transporter (NET) (Homo sapiens, UniProt P23975); test: NIMH PDSP radioligand displacement; conditions: 10 μM
norepinephrine transporter (NET), sequence (P23975 whole entry, species assumed, canonical isoform): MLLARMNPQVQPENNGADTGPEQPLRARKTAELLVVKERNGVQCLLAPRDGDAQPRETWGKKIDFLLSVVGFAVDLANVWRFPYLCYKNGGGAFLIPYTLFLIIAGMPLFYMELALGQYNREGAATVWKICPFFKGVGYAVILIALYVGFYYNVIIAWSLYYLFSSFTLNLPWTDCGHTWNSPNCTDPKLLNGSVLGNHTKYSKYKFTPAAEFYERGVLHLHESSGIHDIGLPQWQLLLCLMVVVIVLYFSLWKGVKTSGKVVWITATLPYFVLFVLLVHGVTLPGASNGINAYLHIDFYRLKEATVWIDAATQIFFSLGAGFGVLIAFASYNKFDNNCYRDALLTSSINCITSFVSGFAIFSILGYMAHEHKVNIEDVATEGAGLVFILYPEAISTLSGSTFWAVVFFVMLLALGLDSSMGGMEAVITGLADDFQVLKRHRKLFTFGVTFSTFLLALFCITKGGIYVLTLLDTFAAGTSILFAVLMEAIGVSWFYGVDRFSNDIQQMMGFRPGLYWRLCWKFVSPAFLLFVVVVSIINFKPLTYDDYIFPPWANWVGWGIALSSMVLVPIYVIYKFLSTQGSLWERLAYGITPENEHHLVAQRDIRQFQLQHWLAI

[7] = biological target: T1, human 5-HT2CR (unedited INI isoform); conditions: cited from earlier work
human 5-HT2AR [8] = biological target: T2, human 5-HT2AR; conditions: cited from earlier work

For `CCCCCCCCCCC[C@@H]1CCN[C@H](C(=O)NC[C@@H](O)CO)C1` (mixture of isomers) [Compound 16a, cis-N-((R)-2,3-Dihydroxypropyl)-4-undecylpiperidine-2-carboxamide], the “allosteric modulator (PAM/NAM) activity on 5-HT-induced Cai2+ release, in words” value (“allosteric modulator (PAM/NAM) activity” for short) [1] was “lacked appreciable PAM activity”.

With `CCCCCCCCCCC[C@@H]1CCN[C@H](C(=O)NC[C@H](O)CO)C1` (mixture of isomers) [Compound 16b, cis-N-((S)-2,3-Dihydroxypropyl)-4-undecylpiperidine-2-carboxamide] the “allosteric modulator (PAM/NAM) activity” value [1] was “displayed significant PAM activity”.

With `CCCCCCCCCCC[C@@H]1CCN[C@H](C(=O)NCCO)C1` (relative stereo) [Compound 8, cis-N-(2-Hydroxyethyl)-4-undecylpiperidine-2-carboxamide] the “allosteric modulator (PAM/NAM) activity” value [1] was “no significant PAM activity”.

For `CCCCCCCCCCC[C@@H]1CCN[C@H](C(=O)NCC(O)CO)C1` (relative stereo) [Compound 16, cis-4-Undecylpiperidine-2-carboxylic Acid (2,3-Dihydroxypropyl)amide], the “effect on 5-HT potency (leftward shift of 5-HT curve)” value ([1]; 1 pM, 1 nM, 1 μM) was “did not impact 5-HT potency”, the “shift of 5-HT-evoked Cai2+ release concentration-response curve” value ([1]; 1 pM, 1 nM, 1 μM) was “upward shift of 5-HT-evoked Cai^2+ release at multiple concentrations” and the “allosteric modulator (PAM/NAM) activity” value [1] was “significant PAM activity”. For the same compound, the “intrinsic agonist efficacy to induce Cai2+ release in the absence of 5-HT” value ([1]; 1 nM, compound alone) was “did not stimulate Cai^2+ release”, the “change in 5-HT Emax or EC50 at the 5-HT2AR” value (human 5-HT2AR [2]) was “no change in the 5-HT Emax or EC50” and the ambulations (male Sprague–Dawley rats [3]; 1 mg/kg ip) was “not associated with suppressed ambulations”. For the same compound, the “mean total ambulations in 30 min vs saline” value (male Sprague–Dawley rats [3]; 5 mg/kg ip) was “significantly reduced mean total ambulations”, the “mean total vertical activity in 30 min vs saline” value (male Sprague–Dawley rats [3]; 5 mg/kg ip) was “significantly reduced mean total vertical activity” and the “substitution for the WAY163909 stimulus, in words” value (male Sprague–Dawley rats [4]; 0.125–1.0 mg/kg ip, given alone) was “partially substituted for WAY163909”. The “previously active lever presses reinforced by the discrete cue complex vs saline” value (male Sprague–Dawley rats [5]; 15 min before cue reactivity session) was “significantly lower”, the “inactive lever presses vs saline” value (male Sprague–Dawley rats [5]) was “did not significantly alter inactive lever presses” and the inhibition at 10 µM (5-HT1BR) was -18.1%. For the same compound, the inhibition at 10 µM (dopamine receptor D4) was -14.2% and the “displacement of radioligand binding” value [6] was “did not displace binding”.

In the case of `CCCCCCCCCCC[C@@H]1CCN[C@H](C(=O)N[C@@H]([C@H]2O[C@H](SC)[C@H](O)[C@@H](O)[C@H]2O)[C@H](C)Cl)C1.Cl` [Compound 1], the “shift of the 5-HT-evoked Cai2+ response curve” value ([7]; 1 nM, previous titration studies) is given as “leftward shift of the 5-HT-evoked Cai^2+ response curve”, the “intrinsic agonist activity at the 5-HT2CR” value [7] is given as “no intrinsic agonist activity” and the “intrinsic agonist activity at the 5-HT2AR” value (human 5-HT2AR [8]) is given as “no intrinsic agonist activity”.

In the case of `CCCCCCCCCCC[C@@H]1CCN[C@H](C(=O)O)C1` [Compound 7, (cis-2,4)-4-Undecylpiperidine-2-carboxylic acid], the “allosteric modulator (PAM/NAM) activity” value [1] is reported as “no significant PAM activity”.

With `c1cc2c3c(c1)[C@H]1CCC[C@H]1N3CCNC2` [WAY163909, (7b-R,10a-R)-1,2,3,4,8,9,10,10a-octahydro-7bH-cyclopenta[b][1,4]diazepino[6,7,1hi]indole] the WAY163909-appropriate responding (male Sprague–Dawley rats [4]; 0.5 mg/kg ip, given alone) was ~30%, the “dose predicted to elicit 50% of WAY163909-lever responding (ED50)” value (male Sprague–Dawley rats [4]; ip, rats trained on WAY163909 0.75 mg/kg vs saline, log-probit) was 0.53 mg/kg and the WAY163909-appropriate responding (male Sprague–Dawley rats [4]; training dose 0.75 mg/kg ip) was “Greater than 95%”.

Reference: publication PMC6533912 (Journal of medicinal chemistry, 2018)
